Measured values reported in US20120264735A1 (priority 2009, published 2012).

Molecular target: T1, c-Met kinase (recombinant c-Met) (Homo sapiens, UniProt P08581)
T1 construct: 0.27 nM recombinant c-Met
Assay: In vitro kinase assay I (homogeneous time-resolved fluorescence tyrosine kinase assay)
Assay type: biochemical
In short: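 Biotinylated peptide (0.5 μM) phosphorylated by 0.2 nM recombinant c-Met with 50 μM MgATP, 60 min at room temperature, pH 7.4, 5% DMSO. EDTA stop; HTRF read with Eu-anti-phosphotyrosine antibody and streptavidin-APC. IC50 from 4-parameter logistic fit.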

T1 sequence (P08581 25-1390): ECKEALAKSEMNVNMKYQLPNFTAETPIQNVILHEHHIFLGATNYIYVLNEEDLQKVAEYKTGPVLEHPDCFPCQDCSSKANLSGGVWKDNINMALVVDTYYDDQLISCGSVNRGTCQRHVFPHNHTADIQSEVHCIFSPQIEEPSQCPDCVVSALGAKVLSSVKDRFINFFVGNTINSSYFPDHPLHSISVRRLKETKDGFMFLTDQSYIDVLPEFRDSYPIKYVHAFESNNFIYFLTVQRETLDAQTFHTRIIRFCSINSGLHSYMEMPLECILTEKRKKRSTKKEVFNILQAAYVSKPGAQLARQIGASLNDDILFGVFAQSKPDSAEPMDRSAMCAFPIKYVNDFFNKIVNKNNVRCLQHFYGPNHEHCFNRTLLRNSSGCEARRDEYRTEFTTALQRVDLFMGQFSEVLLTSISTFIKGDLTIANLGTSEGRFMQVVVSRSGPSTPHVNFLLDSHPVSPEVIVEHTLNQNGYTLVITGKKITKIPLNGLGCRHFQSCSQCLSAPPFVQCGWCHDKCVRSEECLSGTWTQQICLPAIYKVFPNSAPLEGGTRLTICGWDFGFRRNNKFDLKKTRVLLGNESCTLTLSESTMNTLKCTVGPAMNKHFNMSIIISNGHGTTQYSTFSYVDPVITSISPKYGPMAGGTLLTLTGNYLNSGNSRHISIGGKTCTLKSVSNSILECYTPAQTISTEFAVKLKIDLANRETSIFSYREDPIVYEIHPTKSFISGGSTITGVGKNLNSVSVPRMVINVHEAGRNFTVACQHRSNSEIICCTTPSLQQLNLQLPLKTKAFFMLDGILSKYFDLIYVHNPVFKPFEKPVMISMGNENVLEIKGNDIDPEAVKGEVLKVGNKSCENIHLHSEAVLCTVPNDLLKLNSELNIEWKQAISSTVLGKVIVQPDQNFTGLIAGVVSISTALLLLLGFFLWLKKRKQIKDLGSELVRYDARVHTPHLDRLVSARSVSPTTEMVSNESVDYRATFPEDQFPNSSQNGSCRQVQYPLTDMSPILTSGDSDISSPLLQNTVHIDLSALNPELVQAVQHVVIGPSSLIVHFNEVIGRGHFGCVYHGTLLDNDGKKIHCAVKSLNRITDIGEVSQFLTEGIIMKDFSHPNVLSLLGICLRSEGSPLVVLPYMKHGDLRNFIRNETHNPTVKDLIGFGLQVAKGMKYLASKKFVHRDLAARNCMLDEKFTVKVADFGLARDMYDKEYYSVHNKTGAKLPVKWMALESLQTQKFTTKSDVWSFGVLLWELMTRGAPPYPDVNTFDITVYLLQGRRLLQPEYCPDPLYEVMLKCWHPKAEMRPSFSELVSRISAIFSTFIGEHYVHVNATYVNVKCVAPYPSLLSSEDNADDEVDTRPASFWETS

SMILES	IC50 [µM]
O=C(Nc1cccc(Cc2nn(-c3ccc(F)c(F)c3)ccc2=O)c1)OCC1COCCO1 (racemic) [Example 603, rac-1,4-dioxan-2-ylmethyl (3-{[1-(3,4-difluorophenyl)-4-oxo-1,4-dihydropyridazin-3-yl]methyl}phenyl)carbamate]	< 0.1
CC(C)COC(=O)Nc1cccc(Cc2nn(-c3cnn(CCCC(=O)NCC(C)O)c3)ccc2=O)c1 (racemic) [Example 706, rac-2-methylpropyl (3-{[1-(1-{4-[(2-hydroxypropyl)amino]-4-oxobutyl}-1H-pyrazol-4-yl)-4-oxo-1,4-dihydropyridazin-3-yl]methyl}phenyl) carbamate]	0.1 to 1
O=C(Nc1cccc(Cc2nn(-c3cc(F)cc(F)c3)ccc2=O)c1)OCC1CCCOC1 (racemic) [Example 607, rac-tetrahydro-2H-pyran-3-ylmethyl (3-{[1-(3,5-difluorophenyl)-4-oxo-1,4-dihydropyridazin-3-yl]methyl}phenyl)carbamate]	< 0.1
CCCOC(=O)Nc1cccc(Cc2nn(-c3cncc(F)c3)ccc2=O)c1 [Example 35, propyl (3-{[1-(5-fluoropyridin-3-yl)-4-oxo-1,4-dihydropyridazin-3-yl]methyl}phenyl)carbamate]	< 0.1
Cn1cc(-n2ccc(=O)c(Cc3ccc4[nH]c(=O)[nH]c4c3)n2)cn1 [Example 23, 5-{[1-(1-methyl-1H-pyrazol-4-yl)-4-oxo-1,4-dihydropyridazin-3-yl]methyl}-1,3-dihydro-2H-benzimidazol-2-one]	0.1 to 1
Cn1cc(-n2ccc(=O)c(Cc3cccc(NC(=O)OCC(F)(F)CN4CCOCC4)c3)n2)cn1 [Example 525, 2,2-difluoro-3-morpholin-4-ylpropyl (3-{[1-(1-methyl-1H-pyrazol-4-yl)-4-oxo-1,4-dihydropyridazin-3-yl]methyl}phenyl)carbamate]	< 0.1
COCCOCCOC(=O)Nc1cccc(Cc2nn(-c3cccc(C#N)c3)ccc2=O)c1 [Example 600, 2-(2-methoxyethoxy)ethyl (3-{[1-(3-cyanophenyl)-4-oxo-1,4-dihydropyridazin-3-yl]methyl}phenyl)carbamate]	< 0.1
CN1CCN(CCOC(=O)Nc2cccc(Cc3nn(-c4cnn(C)c4)ccc3=O)c2)CC1 [Example 530, 2-(4-methylpiperazin-1-yl)ethyl (3-{[1-(1-methyl-1H-pyrazol-4-yl)-4-oxo-1,4-dihydropyridazin-3-yl]methyl}phenyl)carbamate]	< 0.1
CC(C)COC(=O)Nc1cccc(Cc2nn(-c3ccn(C)n3)ccc2=O)c1 [Example 26, 2-methylpropyl (3-{[1-(1-methyl-1H-pyrazol-3-yl)-4-oxo-1,4-dihydropyridazin-3-yl]methyl}phenyl)carbamate]	< 0.1
CCC(=O)Nc1cccc(Cc2nn(-c3cnn(C)c3)ccc2=O)c1 [Example 635, N-(3-{[1-(1-methyl-1H-pyrazol-4-yl)-4-oxo-1,4-dihydropyridazin-3-yl]methyl}phenyl)propanamide]	0.1 to 1
CN1CCN(CCOC(=O)Nc2cccc(Cc3nn(-c4cc(F)c(F)c(F)c4)ccc3=O)c2)CC1 [Example 516, 2-(4-methylpiperazin-1-yl)ethyl (3-{[4-oxo-1-(3,4,5-trifluorophenyl)-1,4-dihydropyridazin-3-yl]methyl}phenyl)carbamate]	< 0.1
O=c1ccn(-c2ccc(F)c(F)c2)nc1Cc1cccc(-c2ncc(OCC3(O)CCOCC3)cn2)c1 [Example 373, 1-(3,4-difluorophenyl)-3-(3-{5-[(4-hydroxytetrahydro-2H-pyran-4-yl)methoxy]pyrimidin-2-yl}benzyl)pyridazin-4(1H)-one]	< 0.1
CCn1cnc(-c2cccc(Cc3nn(-c4cnn(CCOCc5ccccc5)c4)ccc3=O)c2)n1 [Example 88, 1-{1-[2-(benzyloxy)ethyl]-1H-pyrazol-4-yl}-3-[3-(1-ethyl-1H-1,2,4-triazol-3-yl)benzyl]pyridazin-4(1H)-one]	0.1 to 1
CC(C)COC(=O)Nc1cccc(Cc2nn(-c3cnn(CC4CCOCC4)c3)ccc2=O)c1 [Example 102, 2-methylpropyl [3-({4-oxo-1-[1-(tetrahydro-2H-pyran-4-ylmethyl)-1H-pyrazol-4-yl]-1,4-dihydropyridazin-3-yl}methyl)phenyl]carbamate]	0.1 to 1

Now from value to compound:

IC50 [µM]	SMILES
< 0.1	Cn1cc(-n2ccc(=O)c(Cc3cccc(-c4ncc(C(=O)NCC(F)(F)F)cn4)c3)n2)cn1 [Example 481, 2-(3-{[1-(1-methyl-1H-pyrazol-4-yl)-4-oxo-1,4-dihydro-pyridazin-3-yl]methyl}phenyl)-N-(2,2,2-trifluoroethyl)pyrimidine-5-carboxamide]
< 0.1	CCOc1cnc(-c2cccc(Cc3nn(-c4cnn(C5CCNCC5)c4)ccc3=O)c2)nc1 [Example 664, 3-[3-(5-ethoxypyrimidin-2-yl)benzyl]-1-(1-piperidin-4-yl-1H-pyrazol-4-yl)pyridazin-4(1H)-one]
< 0.1	Cn1cc(-n2ccc(=O)c(Cc3cccc(-c4ncc(C5CC5)cn4)c3)n2)cn1 [Example 393, 3-[3-(5-cyclopropyl-pyrimidin-2-yl)benzyl]-1-(1-methyl-1H-pyrazol-4-yl)pyridazin-4(1H)-one]
0.1 to 1	CCOC(=O)Nc1cccc(C(C)c2nn(-c3ccccc3)ccc2=O)c1 (racemic) [Example 651, rac-Ethyl {3-[1-(4-oxo-1-phenyl-1,4-dihydropyridazin-3-yl)ethyl]phenyl}carbamate]
< 0.1	CC(C)CNC(=O)c1cnc(-c2cccc(Cc3nn(-c4cnn(C)c4)ccc3=O)c2)nc1 [Example 480, N-(2-methylpropyl)-2-(3-{[1-(1-methyl-1H-pyrazol-4-yl)-4-oxo-1,4-dihydro-pyridazin-3-yl]methyl}phenyl)pyrimidine-5-carboxamide]
< 0.1	Cn1cc(-n2ccc(=O)c(Cc3cccc(-c4ncc(OCC5CCOCC5)cn4)c3)n2)cn1 [Example 262, 1-(1-methyl-1H-pyrazol-4-yl)-3-{3-[5-(tetrahydro-2H-pyran-4-ylmethoxy)pyrimidin-2-yl]benzyl}pyridazin-4(1H)-one]
0.1 to 1	CC(c1cccc(-c2ncc(OC(F)F)cn2)c1)c1nn(-c2cnn(C)c2)ccc1=O (single isomer, unassigned) [Example 209, 3-[(1S or R)-1-{3-[5-(difluoromethoxy)pyrimidin-2-yl]phenyl}ethyl]-1-(1-methyl-1H-pyrazol-4-yl)pyridazin-4(1H)-one]
< 0.1	CCn1cc(-n2ccc(=O)c(C(C)c3cccc(-c4ncc(OC)cn4)c3)n2)cn1 (single isomer, unassigned) [Example 333, 1-(1-ethyl-1H-pyrazol-4-yl)-3-{(1R or S)-1-[3-(5-methoxypyrimidin-2-yl)phenyl]ethyl}pyridazin-4(1H)-one]
< 0.1	CC(c1cccc(-c2ncc(OC(F)F)cn2)c1)c1nn(-c2cnn(C)c2)ccc1=O (single isomer, unassigned) [Example 210, 3-[(1R or S)-1-{3-[5-(difluoromethoxy)pyrimidin-2-yl]phenyl}ethyl]-1-(1-methyl-1H-pyrazol-4-yl)pyridazin-4(1H)-one]
< 0.1	CCOC(=O)Nc1cccc(Cc2nn(-c3cnn(C)c3)ccc2=O)c1 [Example 1, Ethyl(3-{[1-(1-methyl-1H-pyrazol-4-yl)-4-oxo-1,4-dihydropyridazin-3-yl]methyl}phenyl)carbamate]
0.1 to 1	CC(c1cccc(-c2ncc(OCC(C)(C)O)cn2)c1)c1nn(-c2ccc(F)c(F)c2)ccc1=O (single isomer, unassigned) [Example 249, 1-(3,4-difluorophenyl)-3-[(1S or R)-1-{3-[5-(2-hydroxy-2-methylpropoxy)pyrimidin-2-yl]phenyl}ethyl]pyridazin-4(1H)-one]
< 0.1	CCc1cnc(-c2cccc(C(C)c3nn(-c4cnn(C)c4)ccc3=O)c2)nc1 (single isomer, unassigned) [Example 237, 3-{(1R or S)-1-[3-(5-ethylpyrimidin-2-yl)phenyl]ethyl}-1-(1-methyl-1H-pyrazol-4-yl)pyridazin-4(1H)-one]
< 0.1	CC1CCCN(c2cnc(-c3cccc(Cc4nn(-c5cnn(C)c5)ccc4=O)c3)nc2)C1 (racemic) [Example 469, rac-3-{3-[5-(3-methyl-piperidin-1-yl)pyrimidin-2-yl]benzyl}-1-(1-methyl-1H-pyrazol-4-yl)pyridazin-4(1H)-one]
< 0.1	Cn1cc(-n2ccc(=O)c(Cc3cccc(-c4ncc(OCC5CCOC5)cn4)c3)n2)cn1 (racemic) [Example 266, rac-1-(1-methyl-1H-pyrazol-4-yl)-3-{3-[5-(tetrahydrofuran-3-ylmethoxy)pyrimidin-2-yl]benzyl}pyridazin-4(1H)-one]
< 0.1	CCn1cc(-n2ccc(=O)c(C(C)c3cccc(-c4ncc(OC5COC5)cn4)c3)n2)cn1 (single isomer, unassigned) [Example 214, 1-(1-ethyl-1H-pyrazol-4-yl)-3-((1R or S)-1-{3-[5-(oxetan-3-yloxy)pyrimidin-2-yl]phenyl}ethyl)pyridazin-4(1H)-one]
< 0.1	Cn1cc(-n2ccc(=O)c(Cc3cccc(-c4ncc(OCC5CC5)cn4)c3)n2)cn1 [Example 278, 3-{3-[5-(cyclopropylmethoxy)pyrimidin-2-yl]benzyl}-1-(1-methyl-1H-pyrazol-4-yl)pyridazin-4(1H)-one]
< 0.1	Cn1cc(-n2ccc(=O)c(Cc3cccc(-c4ncc(C(=O)NCC5CCCOC5)cn4)c3)n2)cn1 (racemic) [Example 478, rac-2-(3-{[1-(1-methyl-1H-pyrazol-4-yl)-4-oxo-1,4-dihydro-pyridazin-3-yl]methyl}phenyl)-N-tetrahydro-2H-pyran-3-ylmethyl)pyrimidine-5-carboxamide]
< 0.1	CC(C)Oc1cnc(-c2cccc(Cc3nn(-c4cnn(C)c4)ccc3=O)c2)nc1 [Example 270, 3-{3-[5-(1-methylethoxy)pyrimidin-2-yl]benzyl}-1-(1-methyl-1H-pyrazol-4-yl)pyridazin-4(1H)-one]
